Here are results for 16 compounds from ChEMBL document CHEMBL5375973, “Design and Synthesis of Novel Near-Infrared Fluorescence Probes Based on an Open Conformation of a Cytochrome P450 1B1 Complex for Molecular Imaging of Colorectal Tumors” (J Med Chem, 2023).

Data set [1] has as its target T1, Cytochrome P450 1B1 (Homo sapiens, UniProt Q16678).
T1 sequence (Q16678 whole entry): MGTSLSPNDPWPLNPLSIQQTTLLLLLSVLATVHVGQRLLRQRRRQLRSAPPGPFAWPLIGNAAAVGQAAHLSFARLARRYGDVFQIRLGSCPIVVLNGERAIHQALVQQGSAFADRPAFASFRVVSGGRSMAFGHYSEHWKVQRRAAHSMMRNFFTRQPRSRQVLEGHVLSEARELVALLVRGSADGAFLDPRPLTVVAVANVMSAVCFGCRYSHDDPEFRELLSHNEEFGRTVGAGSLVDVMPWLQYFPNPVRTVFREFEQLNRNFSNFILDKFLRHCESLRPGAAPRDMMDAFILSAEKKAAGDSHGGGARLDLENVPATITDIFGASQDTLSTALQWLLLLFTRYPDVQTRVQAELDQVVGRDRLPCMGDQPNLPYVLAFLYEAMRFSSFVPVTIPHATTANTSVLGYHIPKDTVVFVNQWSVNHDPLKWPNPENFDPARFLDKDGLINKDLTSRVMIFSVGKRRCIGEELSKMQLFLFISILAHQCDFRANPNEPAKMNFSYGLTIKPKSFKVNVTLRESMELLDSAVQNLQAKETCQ
Nature of the data set: Inhibition of recombinant CYP1B1 (unknown origin) using 7-ethoxyresorufin as substrate preincubated for 5 mins followed by NADPH addition incubated for 35 mins by EROD assay. It is filed as ADME.

Another data set has as its target T2, Cytochrome P450 1A2 (Homo sapiens, UniProt P05177).
T2 sequence (P05177 whole entry): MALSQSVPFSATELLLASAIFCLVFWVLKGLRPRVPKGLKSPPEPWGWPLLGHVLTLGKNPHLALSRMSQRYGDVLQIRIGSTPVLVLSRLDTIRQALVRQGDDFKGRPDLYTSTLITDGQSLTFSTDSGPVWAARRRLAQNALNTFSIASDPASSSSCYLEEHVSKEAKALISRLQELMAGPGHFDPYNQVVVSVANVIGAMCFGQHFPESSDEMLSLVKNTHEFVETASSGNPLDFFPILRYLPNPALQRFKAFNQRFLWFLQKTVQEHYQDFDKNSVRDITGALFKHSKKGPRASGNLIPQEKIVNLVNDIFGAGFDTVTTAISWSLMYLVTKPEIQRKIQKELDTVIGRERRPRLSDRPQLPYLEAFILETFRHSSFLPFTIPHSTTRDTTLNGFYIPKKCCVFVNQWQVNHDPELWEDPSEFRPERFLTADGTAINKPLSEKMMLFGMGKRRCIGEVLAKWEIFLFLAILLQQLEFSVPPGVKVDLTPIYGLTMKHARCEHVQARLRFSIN
Nature of the data set: Inhibition of recombinant CYP1A2 (unknown origin) using 7-ethoxyresorufin as substrate preincubated for 5 mins followed by NADPH addition incubated for 50 mins by EROD assay. The data set is classed as ADME.

For a further data set, the system named is HFF-1. Nature of the data set: Cytotoxicity against human HFF-1 cells at 1 to 10 uM incubated for 24 hrs by MTT assay. The data set is classed as toxicity, cell-based. To be noted: hff-1, 24 h, dose 1-10 µM. (In general: Tetrazolium dyes change colour on reduction, which living cells bring about.)
The next data set relates to HCT-15. Nature of the data set: Cytotoxicity against human HCT-15 cells assessed as cell viability at 10 uM incubated for 24 hrs by MTT assay. It is filed as functional. To be noted: read-out: Activity.
Data set [2] deals with T1, Cytochrome P450 1B1. Briefly: Binding affinity to CYP1B1 in human HCT-15 cells assessed as apparent dissociation constant incubated for 1 hr by flow cytometry analysis. The data set is classed as ADME, cell-based. To be noted: read-out: Kd(app). Background: In flow cytometry, cells or beads pass a laser one at a time.
Data set [3] is described as follows: Stability of the compound assessed as drug degradation observed after 24 hrs by HPLC analysis. It is filed as physicochemical.
For another data set, the target named is T3, Cytochrome P450 1A1 (Homo sapiens, UniProt P04798).
T3 sequence (P04798 whole entry): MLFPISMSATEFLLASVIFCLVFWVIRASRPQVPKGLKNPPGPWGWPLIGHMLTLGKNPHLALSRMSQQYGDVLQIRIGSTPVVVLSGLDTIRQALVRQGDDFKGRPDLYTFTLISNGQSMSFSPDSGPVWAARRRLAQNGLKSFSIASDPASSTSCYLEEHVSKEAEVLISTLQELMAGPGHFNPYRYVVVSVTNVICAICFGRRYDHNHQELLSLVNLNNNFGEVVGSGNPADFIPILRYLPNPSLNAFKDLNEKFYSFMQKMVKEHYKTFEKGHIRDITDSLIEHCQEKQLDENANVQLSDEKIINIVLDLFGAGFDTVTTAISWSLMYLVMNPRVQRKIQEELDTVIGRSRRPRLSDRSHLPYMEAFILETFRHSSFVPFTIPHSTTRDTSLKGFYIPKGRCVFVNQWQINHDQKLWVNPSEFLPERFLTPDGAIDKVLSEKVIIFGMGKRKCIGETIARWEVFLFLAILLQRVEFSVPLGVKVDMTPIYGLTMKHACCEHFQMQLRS
Briefly: Inhibition of recombinant CYP1A1 (unknown origin) using 7-ethoxyresorufin as substrate preincubated for 5 mins followed by NADPH addition incubated for 15 mins by EROD assay. The data set is classed as ADME.

Bounds are passed on as bounds.

A word on the IC50: it is the concentration needed to halve the response being measured. As for `COc1ccc(OC)c2c1c(OC)cc1c(=O)cc(-c3cc(N)cc(F)c3)oc12`, at Cytochrome P450 1B1 [1], the IC50 turned out to be 2.03 nM.
Same read-out and setting: the result for `COc1ccc(OC)c2c1c(OC)cc1c(=O)cc(-c3ccc(O)c(F)c3)oc12` reads 113 nM.
For the compound `COc1ccc(OC)c2c1c(OC)cc1c(=O)cc(-c3cc(F)cc(NC(=O)CCCCN)c3)oc12`, on Cytochrome P450 1A2, the IC50 was 514 nM.
Still for that read-out and setting: then `COc1ccc(OC)c2c1c(OC)cc1c(=O)cc(-c3cc(F)cc(NC(=O)COCCN)c3)oc12`, with 1600 nM.
The same measure, in the same setting: then `COc1ccc(OC)c2c1c(OC)cc1c(=O)cc(-c3cc(F)cc(OCCOCCN)c3)oc12`, with 525 nM.
Take `COc1ccc(OC)c2c1c(OC)cc1c(=O)cc(-c3cc(O)cc(F)c3)oc12`: the IC50 on Cytochrome P450 1B1 [1] amounted to 95 nM.
Take `CCN1/C(=C/C=C/C=C/C2=[N+](CCCCCC(=O)NCCCCCCCCC(=O)Nc3cc(F)cc(-c4cc(=O)c5cc(OC)c6c(OC)ccc(OC)c6c5o4)c3)c3ccc4c(S(=O)(=O)[O-])cc(S(=O)(=O)O)cc4c3C2(C)C)C(C)(C)c2c1ccc1c(S(=O)(=O)O)cc(S(=O)(=O)O)cc21`: the Activity entry in the data set with HFF-1 is reported as “Non-Toxic”. Besides, the viability at 10 µM in the data set with HCT-15 was greater than 80%. Moreover, on Cytochrome P450 1B1 [2], the Kd is 213 nM. For the same compound, the Stability entry in data set [3] was “Stable”.
With `O=c1cc(-c2ccccc2)oc2c1ccc1ccccc12` [ALPHA-NAPHTHOFLAVONE], the IC50 at Cytochrome P450 1A1 was determined as 37.8 nM.
As for `COc1ccc(OC)c2c1c(OC)cc1c(=O)cc(-c3cc(F)cc(NC(=O)CCCCCCN)c3)oc12`, the IC50 at Cytochrome P450 1A2 is 1460 nM.
Turning to `COc1ccc(OC)c2c1c(OC)cc1c(=O)cc(-c3ccc(N)c(F)c3)oc12`, at Cytochrome P450 1B1 [1], the IC50 stood at 2.47 nM.
On to `COc1ccc(OC)c2c1c(OC)cc1c(=O)cc(-c3cc(F)cc(OCCOCCOCCN)c3)oc12`, for which the IC50 on Cytochrome P450 1A2 turned out to be 1840 nM.
On the same count and under the same terms, the result for `COc1ccc(OC)c2c1c(OC)cc1c(=O)cc(-c3cc(F)cc(NC(=O)COCCOCCN)c3)oc12` reads greater than 2000 nM; that for `COc1ccc(OC)c2c1c(OC)cc1c(=O)cc(-c3cc(F)cc(OCCOCCOCCOCCN)c3)oc12`, greater than 2000 nM; that for `COc1ccc(OC)c2c1c(OC)cc1c(=O)cc(-c3cc(F)cc(NC(=O)COCCOCCOCCN)c3)oc12`, greater than 2000 nM.
Consider `COc1ccc(OC)c2c1c(OC)cc1c(=O)cc(-c3cc(F)cc(NC(=O)CCCCCCCCN)c3)oc12`, for which the half-inhibitory concentration (IC50) on Cytochrome P450 1A2 was greater than 2000 nM.
`CCN1/C(=C/C=C/C=C/C2=[N+](CCCCCC(=O)NCCOCCOCCOCC(=O)Nc3cc(F)cc(-c4cc(=O)c5cc(OC)c6c(OC)ccc(OC)c6c5o4)c3)c3ccc4c(S(=O)(=O)[O-])cc(S(=O)(=O)O)cc4c3C2(C)C)C(C)(C)c2c1ccc1c(S(=O)(=O)O)cc(S(=O)(=O)O)cc21`: the Activity result with HFF-1 was “Non-Toxic”. Further, the viability at 10 µM in the data set with HCT-15 is greater than 80%. Also, at Cytochrome P450 1B1 [2], the Kd is 168 nM. For the same compound, the Stability result in data set [3] is recorded as “Stable”.
